Data published in ChEMBL document CHEMBL1799913, “A combined spectroscopic and crystallographic approach to probing drug-human serum albumin interactions” (Bioorg Med Chem, 2010).
In brackets after ≈: the same amount, converted by molar mass.

What was measured:
[1] = physchem; conditions: phosphate buffer, pH 7.4
Description: Aqueous solubility of the compound in phosphate buffer solution of pH 7.4 after 24 hrs by LC-UV analysis

[2] = target: T1, Albumin (Homo sapiens, UniProt P02768); conditions: isolated protein
Description: Binding affinity to fatty acid-free human serum albumin by equilibrium dialysis

[3] = Octanol-buffer partition coefficient, log D of the compound at pH 7.4 by shake-flask method
[4] = target: T1, Albumin; conditions: isolated protein; remark: listed apart in the source
Description: Binding affinity to fatty acid-containing human serum albumin by equilibrium dialysis

[5] = Lipophilicity, log P of the compound in octanol
[6] = Dissociation constant, pKa of the compound by spectrophotometric titration; format: physicochemical
[7] = target: T2, human serum albumin site 1 (Homo sapiens, UniProt P02768); experiment: in vitro; conditions: pH 7.4, probe warfarin
T2 sequence (P02768 whole entry): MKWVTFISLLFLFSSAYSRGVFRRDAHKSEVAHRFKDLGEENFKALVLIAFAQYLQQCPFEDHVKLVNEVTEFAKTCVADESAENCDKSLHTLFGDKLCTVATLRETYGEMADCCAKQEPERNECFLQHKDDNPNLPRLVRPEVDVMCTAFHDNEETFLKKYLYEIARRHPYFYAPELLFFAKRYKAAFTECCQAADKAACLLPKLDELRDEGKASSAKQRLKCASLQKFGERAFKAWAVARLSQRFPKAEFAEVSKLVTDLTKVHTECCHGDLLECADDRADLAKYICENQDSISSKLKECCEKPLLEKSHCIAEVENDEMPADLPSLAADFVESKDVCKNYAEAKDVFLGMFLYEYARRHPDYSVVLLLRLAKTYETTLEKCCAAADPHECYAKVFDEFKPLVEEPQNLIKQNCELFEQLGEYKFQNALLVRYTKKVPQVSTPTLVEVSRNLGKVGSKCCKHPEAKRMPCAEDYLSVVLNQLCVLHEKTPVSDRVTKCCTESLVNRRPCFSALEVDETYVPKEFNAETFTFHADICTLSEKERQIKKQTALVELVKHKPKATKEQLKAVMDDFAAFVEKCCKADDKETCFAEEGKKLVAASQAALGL
Description: Displacement of radiolabeled warfarin from human serum albumin site 1 in phosphate buffer at pH 7.4 at 100 uM by fluorescence spectroscopy

[8] = target: T3, human serum albumin site 2 (Homo sapiens, UniProt P02768); experiment: in vitro; conditions: pH 7.4, probe dansylsarcosine
T3 sequence (P02768 whole entry): as above
Description: Displacement of radiolabeled dansylsarcosine from human serum albumin site 2 in phosphate buffer at pH 7.4 at 100 uM by fluorescence spectroscopy

[9] = target: T2, human serum albumin site 1; experiment: in vitro; conditions: fatty acid-free human serum albumin, pH 7.4, probe warfarin
Description: Displacement of radiolabeled warfarin from fatty acid-free human serum albumin site 1 in phosphate buffer at pH 7.4 at 12 uM by fluorescence spectroscopy

[10] = target: T3, human serum albumin site 2; experiment: in vitro; conditions: fatty acid-free human serum albumin, pH 7.4, probe dansylsarcosine
Description: Displacement of radiolabeled dansylsarcosine from fatty acid-free human serum albumin site 2 in phosphate buffer at pH 7.4 at 12 uM by fluorescence spectroscopy

[11] = target: T3, human serum albumin site 2; experiment: in vitro; conditions: fatty acid containing human serum albumin, pH 7.4, probe dansylsarcosine
Description: Displacement of radiolabeled dansylsarcosine from fatty acid containing human serum albumin site 2 in phosphate buffer at pH 7.4 at 12 uM by fluorescence spectroscopy

[12] = target: T2, human serum albumin site 1; experiment: in vitro; conditions: fatty acid containing human serum albumin, pH 7.4, probe warfarin
Description: Displacement of radiolabeled warfarin from fatty acid containing human serum albumin site 1 in phosphate buffer at pH 7.4 at 12 uM by fluorescence spectroscopy

[13] = target: T1, Albumin; experiment: Binding affinity to human serum albumin by equilibrium dialysis; format: ADME; conditions: isolated protein
[14] = target: T3, human serum albumin site 2; experiment: Displacement of […] dansylsarcosine from human serum albumin site 2 in phosphate buffer at pH 7.4 at 4 uM by fluorescence spectroscopy; conditions: pH 7.4, probe dansylsarcosine, read-out: Activity
[15] = target: T2, human serum albumin site 1; experiment: Displacement of […] warfarin from human serum albumin site 1 in phosphate buffer at pH 7.4 at 4 uM by fluorescence spectroscopy; conditions: pH 7.4, probe warfarin, read-out: Activity

T1 sequence (P02768 whole entry): as above

SMILES | inhibition at 12 µM [9] | inhibition at 12 µM [10] | inhibition at 12 µM [11] | inhibition at 12 µM [12] | other results
O=C(O)C[C@@H]1c2ccccc2C[C@H]1NC(=O)c1cc2cc(F)ccc2[nH]1 |  |  |  |  | solubility at 24 h [1]: 1930 µM (≈ 680 µg/mL); log Ks [2]: 5.97; logD [3]: 1.26; log Ks [4]: 6.11; logP [5]: 4.71; pKa [6]: 3.95
O=C(O)CCC[C@@H]1c2ccccc2C[C@H]1NC(=O)c1cc2cc(F)ccc2[nH]1 |  |  |  |  | solubility at 24 h [1]: 86 µM (≈ 32.7 µg/mL); log Ks [2]: 5.41; logD [3]: 1.95; log Ks [4]: 5.41; logP [5]: 5.11; pKa [6]: 4.24
CC(=O)Nc1nc(C)c(-c2cnc(F)c(NS(=O)(=O)c3sc(C)nc3C)c2)s1 |  |  |  |  | inhibition at 100 µM [7]: 6%; solubility at 24 h [1]: > 1700 µM; log Ks [2]: 5.88; inhibition at 100 µM [8]: 7%; log Ks [4]: 5.62; pKa [6]: 4.71
CC(=O)CC(c1ccc([N+](=O)[O-])cc1)c1c(O)c2ccccc2oc1=O (stereo not given) [ACENOCOUMAROL] | 49.8% | 12.5% | 39% | 54.6% | 
NS(=O)(=O)c1cc2c(cc1Cl)N=CNS2(=O)=O [CHLOROTHIAZIDE] | 28.9% | 8% | 18.8% | 16% | 
CCCNC(=O)NS(=O)(=O)c1ccc(Cl)cc1 [CHLORPROPAMIDE] | 19.2% | 28.5% | 26% | 18.5% | 
O=C1CN=C(c2ccccc2Cl)c2cc([N+](=O)[O-])ccc2N1 [CLONAZEPAM] | 0% | 16.2% | 19.5% | 3.8% | 
Cc1onc(-c2ccccc2Cl)c1C(=O)N[C@@H]1C(=O)N2[C@@H]1SC(C)(C)[C@@H]2C(=O)O [CLOXACILLIN] | 0% | 24.1% | 18.1% | 5.7% | 
CN(C)c1cccc2c(S(=O)(=O)N(C)CC(=O)O)cccc12 [DANSYLSARCOSINE] |  |  |  |  | log Ks [13]: 5.39
O=c1oc2ccccc2c(O)c1Cc1c(O)c2ccccc2oc1=O [DICUMAROL] | 86.4% | 88.8% | 19.8% | 10.5% | 
O=C(O)CCC(=O)c1ccc(-c2ccccc2)cc1 [FENBUFEN] | 0% | 70% | 66.2% | 0% | 
O=C(O)c1ccccc1Nc1cccc(C(F)(F)F)c1 [FLUFENAMIC ACID] | 48.6% | 95.8% | 91.2% | 68.6% | inhibition at 4 µM [14]: 73%; log Ks [13]: 6.68; inhibition at 4 µM [15]: 24%
CCN(CC)CCN1C(=O)CN=C(c2ccccc2F)c2cc(Cl)ccc21 [FLURAZEPAM] | 0% | 4.3% | 2.7% | 6.3% | log Ks [13]: 3.38
NS(=O)(=O)c1cc(C(=O)O)c(NCc2ccco2)cc1Cl [FUROSEMIDE] | 36.2% | 19.2% | 49% | 47.3% | 
COc1ccc(Cl)cc1C(=O)NCCc1ccc(S(=O)(=O)NC(=O)NC2CCCCC2)cc1 [GLYBURIDE] | 28.6% | 33.9% | 62.2% | 50.7% | solubility at 24 h [1]: 11 µM (≈ 5.43 µg/mL)
Cc1cc(NC(=O)C2=C(O)c3ccccc3S(=O)(=O)N2C)no1 [ISOXICAM] | 51.7% | 33.1% | 32.6% | 38% | 
COc1ccc2cc([C@H](C)C(=O)O)ccc2c1 [NAPROXEN] | 24.7% | 91.3% | 79.9% | 38.8% | 
O=C1NC(=O)C(c2ccccc2)(c2ccccc2)N1 [PHENYTOIN] | 4% | 0% | 18.8% | 9.3% | 
CC(C)NCC(O)COc1cccc2[nH]ccc12 (stereo not given) [PINDOLOL] | 0% | 0.2% | 9.5% | 0% | log Ks [13]: 2.65
CN1C(C(=O)Nc2ccccn2)=C(O)c2ccccc2S1(=O)=O [PIROXICAM] | 6.7% | 45.5% | 44.8% | 53.5% | 
O=C1C(CC[S+]([O-])c2ccccc2)C(=O)N(c2ccccc2)N1c1ccccc1 (stereo not given) [SULFINPYRAZONE] | 35.2% | 18.6% | 34.2% | 44.1% | 
CC/C(=C(\c1ccccc1)c1ccc(OCCN(C)C)cc1)c1ccccc1 [TAMOXIFEN] | 0% | 16.3% | 62.2% | 0% | 
CN1C(C(=O)Nc2ccccn2)=C(O)c2sccc2S1(=O)=O [TENOXICAM] | 52.3% | 27.4% | 38.5% | 61.7% | 
N[C@@H](Cc1c[nH]c2ccccc12)C(=O)O [TRYPTOPHAN] | 0% | 15.3% | 15.1% | 0% | 
